Assay [1] addresses T1, p120γ (PI3Kγ) (Homo sapiens, UniProt P48736).
T1 construct: purchased BPS Bioscience 40625
Kind of assay: HTRF assay, p120γ. In kind it is biochemical. As to conditions: PI3Kγ; read-out: PI3Kγ HTRF IC50 Inhibition Designation. In short, it runs like this: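 End-point competition-binding HTRF with 1-4 nM enzyme and 10 μM di-C8-PIP2, pre-incubated with compound 30 min at 25° C, then 50 μM ATP for 15-30 min at 25° C. HTRF ratio (665/620 nm) gave % inhibition; IC50 from variable-slope log-dose fit.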

Assay [2] relates to HCT116. The assay is described as follows: HCT116-WB assay. The format is cell-based. Conditions: Homo sapiens, HCT-116; read-out: HCT116-WB Inhibition Designation.
For assay [3], the target named is T2, p110α/p85α (PI3Kα) (Homo sapiens, UniProt P42336).
T2 construct: purchased BPS Bioscience or Millipore 40620 (BPS Bioscience) or 14-602 (Millipore)
T2 sequence (P42336 whole entry): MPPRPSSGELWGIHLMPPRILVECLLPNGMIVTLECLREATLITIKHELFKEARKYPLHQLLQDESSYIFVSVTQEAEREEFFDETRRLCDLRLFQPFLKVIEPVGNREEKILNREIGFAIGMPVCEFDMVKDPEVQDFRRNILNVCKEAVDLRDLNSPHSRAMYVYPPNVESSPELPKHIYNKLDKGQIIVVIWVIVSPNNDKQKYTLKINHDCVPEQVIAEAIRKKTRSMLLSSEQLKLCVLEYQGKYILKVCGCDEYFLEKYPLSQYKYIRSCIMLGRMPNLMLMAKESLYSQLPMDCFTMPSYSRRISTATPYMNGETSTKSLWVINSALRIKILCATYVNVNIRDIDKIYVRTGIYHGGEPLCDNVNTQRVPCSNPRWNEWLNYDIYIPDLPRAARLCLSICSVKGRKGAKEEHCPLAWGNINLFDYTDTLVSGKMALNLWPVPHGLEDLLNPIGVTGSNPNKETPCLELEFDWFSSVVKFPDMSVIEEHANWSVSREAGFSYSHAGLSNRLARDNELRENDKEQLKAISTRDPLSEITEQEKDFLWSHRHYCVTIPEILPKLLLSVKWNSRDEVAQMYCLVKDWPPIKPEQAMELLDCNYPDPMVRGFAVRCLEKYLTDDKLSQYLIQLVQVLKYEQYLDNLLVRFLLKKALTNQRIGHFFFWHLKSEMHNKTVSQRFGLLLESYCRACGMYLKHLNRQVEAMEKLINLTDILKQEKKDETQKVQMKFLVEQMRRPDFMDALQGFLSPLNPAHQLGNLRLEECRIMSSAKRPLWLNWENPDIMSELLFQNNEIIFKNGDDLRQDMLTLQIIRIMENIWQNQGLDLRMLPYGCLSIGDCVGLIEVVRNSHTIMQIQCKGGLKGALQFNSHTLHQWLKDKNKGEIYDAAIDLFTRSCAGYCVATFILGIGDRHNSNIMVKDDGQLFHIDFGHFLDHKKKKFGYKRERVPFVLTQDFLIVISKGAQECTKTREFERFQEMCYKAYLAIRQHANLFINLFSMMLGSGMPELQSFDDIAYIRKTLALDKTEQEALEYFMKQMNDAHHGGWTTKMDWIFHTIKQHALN
T2 sequence (P27986 whole entry partner): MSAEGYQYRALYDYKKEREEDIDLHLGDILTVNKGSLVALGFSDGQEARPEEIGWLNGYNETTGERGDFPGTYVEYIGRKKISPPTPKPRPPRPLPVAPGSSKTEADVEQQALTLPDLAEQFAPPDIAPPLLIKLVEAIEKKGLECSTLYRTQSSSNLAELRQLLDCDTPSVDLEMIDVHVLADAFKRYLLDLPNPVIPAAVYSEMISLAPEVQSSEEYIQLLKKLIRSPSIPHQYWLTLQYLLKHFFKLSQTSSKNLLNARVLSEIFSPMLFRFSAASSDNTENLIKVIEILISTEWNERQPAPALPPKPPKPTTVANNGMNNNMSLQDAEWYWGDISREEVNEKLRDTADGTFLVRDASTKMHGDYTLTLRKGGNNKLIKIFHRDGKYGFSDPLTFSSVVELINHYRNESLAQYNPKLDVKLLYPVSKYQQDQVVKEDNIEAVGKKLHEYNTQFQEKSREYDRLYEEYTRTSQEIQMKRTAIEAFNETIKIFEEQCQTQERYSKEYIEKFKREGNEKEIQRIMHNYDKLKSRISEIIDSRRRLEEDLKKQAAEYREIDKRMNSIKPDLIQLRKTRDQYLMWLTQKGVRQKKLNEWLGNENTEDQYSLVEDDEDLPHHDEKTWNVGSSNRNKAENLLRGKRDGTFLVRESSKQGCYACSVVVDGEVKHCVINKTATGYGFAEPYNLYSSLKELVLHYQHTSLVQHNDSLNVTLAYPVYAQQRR
Kind of assay: HTRF assay, p110α/p85α. In kind it is biochemical. As to conditions: read-out: PI3Kα-HTRF-IC50 nM Inhibition Designation. As for the experimental part:
HTRF Assay Protocol for Potency Assessment Against the Active Form of p110α/p85α:
(§1) The mechanics of the assay platform are best described by the vendor (Millipore, Billerica, Mass.) on their website at the following URL: http://www.millipore.com/coa/tech1/74jt4z.
(§2) Briefly, Stop solution (Stop A, #33-007 and Stop B, #33-009; 3:1 ratio) and Detection Mix (DMC, #33-015 with DMA, #33-011 and DMB, #33-013; 18:1:1 ratio) were prepared as recommended by the manufacturer ˜2 hrs prior to use. […] Lipid kinase reactions were started with the addition of 5 μL of ATP solution, mixed for 15 sec on a rotary plate shaker and incubated for 15-30 minutes at 25° C. Next, reactions were stopped with a 5 μL addition of Stop solution followed by a 5 μL volume of Detection Mix. […] At the conclusion of each assay, the HTRF ratio from fluorescence emission values for each well was calculated and % Inhibition determined from averaged controls wells. % Inhibition values for each compound re then plotted against inhibitor concentration to estimate IC50 from log [Inhibitor] vs Response, Variable Slope model in GraphPad Prism from GraphPad Software (San Diego, Calif.).

The target in assay [4] is T3, recombinant human XIAP; BIR3 domain (Homo sapiens, UniProt P98170).
T3 construct: recombinant human XIAP; BIR3 domain (895-XB); purchased R&D Systems 895-XB
T3 sequence (P98170 252-356 limits assumed): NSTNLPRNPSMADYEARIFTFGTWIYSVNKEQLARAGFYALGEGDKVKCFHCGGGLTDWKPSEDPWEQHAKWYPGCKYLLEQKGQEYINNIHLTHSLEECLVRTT
The assay is described as follows: Fluorescence polarization competition binding assay, XIAP BIR3 domain. The procedure: (§3) Homogeneous, Fluorescence Polarization, Competition Binding Assay Protocol for Affinity Assessment of Compound Binding to XIAP, cIAP-1 and ML-IAPβ BIR3 Domains
(§4) 1× stocks of recombinant human XIAP; BIR3 domain (895-XB), recombinant human cIAP-1 (818-IA) or recombinant human ML-IAPβ (818-IA) from R&D Systems and Fluorescence Polarization (FP) assay tracer (Atto-647 tagged IAP inhibitor probe compound) were prepared in assay buffer consisting of 25 mM Tris-HCL, pH 7.5 (Sigma), 10 mM […] (Sigma), 1 mM DTT (Fluka) and 0.005% TritonX-100 (Pierce). While IAP protein and tracer equilibrated at ambient temp in the dark (30-60 min), 100× stocks of test compound were prepared in 50% DMSO:H2O, serially diluted and spotted (0.5 µL/well) in duplicate wells of a 384-well, flat bottom, polypropylene, black assay plate (Greiner #781209). […] Competition binding between test compounds and assay tracer was initiated by the addition of 50 µL/well of pre-equilibrated IAP protein and assay tracer. Displacement of the assay tracer was measured in a Synergy plate reader from BioTek (Winooski, Vt.) at λex620/λem680 through a 660 nm half-sized dicroich mirror and S/P polarizing filters every 30 min for 3 hr. (See Huang, X., Journal of Biomolecular Screening 8, 2003). The resulting compound dose response data were fit to a one-site binding Ki model in GraphPad Prism from GraphPad Software (San Diego, Calif.).

Assay [5] addresses T4, recombinant human cIAP-1 (Homo sapiens, UniProt Q13490).
T4 construct: purchased R&D Systems 818-IA
The assay is described as follows: Fluorescence polarization competition binding assay, cIAP-1. As to conditions: c-IAP-1, 3 h. As for the experimental part: as §3, §4

The target of assay [6] is T5, recombinant human ML-IAPβ (Homo sapiens, UniProt Q96CA5).
T5 construct: purchased R&D Systems 818-IA
T5 sequence (Q96CA5 1-280 isoform Q96CA5-2): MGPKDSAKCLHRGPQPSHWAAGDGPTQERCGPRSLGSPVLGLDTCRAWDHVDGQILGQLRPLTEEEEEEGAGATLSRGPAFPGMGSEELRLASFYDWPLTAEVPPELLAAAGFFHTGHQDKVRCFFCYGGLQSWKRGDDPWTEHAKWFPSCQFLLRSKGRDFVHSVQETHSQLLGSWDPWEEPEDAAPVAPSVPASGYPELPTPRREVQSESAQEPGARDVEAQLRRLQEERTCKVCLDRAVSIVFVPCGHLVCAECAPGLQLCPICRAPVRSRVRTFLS
The assay is described as follows: Fluorescence polarization competition binding assay, ML-IAPβ. As to conditions: ML-IAP, 2 h. As for the experimental part:
as §3, §4

Assay [7] addresses T6, XIAP (Homo sapiens, UniProt P98170).
T6 construct: recombinant human XIAP; BIR3 domain (895-XB)
The assay is described as follows: MALDI mass spectrometric analysis of intact XIAP incubated with compound. In kind it is binding. As to conditions: 18 hr, 10-fold excess of compound to protein. As for the experimental part:
Intact XIAP was incubated for 18 hr at a 10-fold excess of VII-1 to protein. 3ul aliquots of the samples were diluted with 10 ul of 0.1% TFA prior to micro C4 ZipTipping directly onto the MALDI target using Sinapinic acid as the desorption matrix (10 mg/mL in 0.1% TFA:Acetonitrile 50:50).
Intact XIAP was incubated for 18 hr at a 10-fold excess of VII-21 to protein. 3 ul aliquots of the samples were diluted with 10 ul of 0.1% TFA prior to micro C4 ZipTipping directly onto the MALDI target using Sinapinic acid as the desorption matrix (10 mg/mL in 0.1% TFA:Acetonitrile 50:50).

Assay [8] addresses T7, p110β/p85α (PI3Kβ) (Homo sapiens, UniProt P42338).
T7 construct: purchased Millipore 14-603
Kind of assay: HTRF assay, p110β/p85α. The format is biochemical. As to conditions: read-out: PI3Kβ HTRF IC50 Inhibition Designation. The procedure: as §1, §2

In assay [9] the target is PI3Kγ (Homo sapiens, UniProt P48736). Kind of assay: MALDI MS of intact PI3Kγ incubated with compound. The format is binding. As to conditions: 1 hr, 10-fold excess, 37° C. The procedure:
Intact PI3Kγ was incubated for 1 hr at a 10-fold excess of compound XXII-33 to protein at 37° C. 5 μL aliquots of the samples were diluted with 10 μL of 0.1% TFA prior to micro C4 Ziptipping directly onto the MALDI target plate using sinapinic acid as the desorption matrix (10 mg/mL in 0.1% TFA:Acetonitrile 50:50).

Each structure is given as a SMILES string. Some results are limits rather than exact numbers.

The source of these data is patent US11542492B2 (Celgene CAR LLC, priority 2009, dated 2023).

T4 sequence (Q13490 whole entry): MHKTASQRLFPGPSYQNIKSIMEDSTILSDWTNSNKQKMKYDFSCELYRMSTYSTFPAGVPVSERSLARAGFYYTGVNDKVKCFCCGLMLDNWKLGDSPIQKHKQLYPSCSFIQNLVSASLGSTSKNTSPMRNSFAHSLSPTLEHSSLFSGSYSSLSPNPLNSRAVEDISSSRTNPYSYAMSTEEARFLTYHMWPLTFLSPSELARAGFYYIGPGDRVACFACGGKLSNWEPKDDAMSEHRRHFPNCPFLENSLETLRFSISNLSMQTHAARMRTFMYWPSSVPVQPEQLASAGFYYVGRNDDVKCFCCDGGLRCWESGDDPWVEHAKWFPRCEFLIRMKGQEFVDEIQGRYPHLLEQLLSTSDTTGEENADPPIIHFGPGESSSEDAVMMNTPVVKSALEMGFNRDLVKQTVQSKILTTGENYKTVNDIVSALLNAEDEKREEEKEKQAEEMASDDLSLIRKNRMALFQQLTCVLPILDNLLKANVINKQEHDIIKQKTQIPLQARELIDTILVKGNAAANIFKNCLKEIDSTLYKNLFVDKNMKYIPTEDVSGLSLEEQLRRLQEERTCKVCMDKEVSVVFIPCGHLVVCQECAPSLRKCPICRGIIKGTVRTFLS
T1 sequence (P48736 whole entry): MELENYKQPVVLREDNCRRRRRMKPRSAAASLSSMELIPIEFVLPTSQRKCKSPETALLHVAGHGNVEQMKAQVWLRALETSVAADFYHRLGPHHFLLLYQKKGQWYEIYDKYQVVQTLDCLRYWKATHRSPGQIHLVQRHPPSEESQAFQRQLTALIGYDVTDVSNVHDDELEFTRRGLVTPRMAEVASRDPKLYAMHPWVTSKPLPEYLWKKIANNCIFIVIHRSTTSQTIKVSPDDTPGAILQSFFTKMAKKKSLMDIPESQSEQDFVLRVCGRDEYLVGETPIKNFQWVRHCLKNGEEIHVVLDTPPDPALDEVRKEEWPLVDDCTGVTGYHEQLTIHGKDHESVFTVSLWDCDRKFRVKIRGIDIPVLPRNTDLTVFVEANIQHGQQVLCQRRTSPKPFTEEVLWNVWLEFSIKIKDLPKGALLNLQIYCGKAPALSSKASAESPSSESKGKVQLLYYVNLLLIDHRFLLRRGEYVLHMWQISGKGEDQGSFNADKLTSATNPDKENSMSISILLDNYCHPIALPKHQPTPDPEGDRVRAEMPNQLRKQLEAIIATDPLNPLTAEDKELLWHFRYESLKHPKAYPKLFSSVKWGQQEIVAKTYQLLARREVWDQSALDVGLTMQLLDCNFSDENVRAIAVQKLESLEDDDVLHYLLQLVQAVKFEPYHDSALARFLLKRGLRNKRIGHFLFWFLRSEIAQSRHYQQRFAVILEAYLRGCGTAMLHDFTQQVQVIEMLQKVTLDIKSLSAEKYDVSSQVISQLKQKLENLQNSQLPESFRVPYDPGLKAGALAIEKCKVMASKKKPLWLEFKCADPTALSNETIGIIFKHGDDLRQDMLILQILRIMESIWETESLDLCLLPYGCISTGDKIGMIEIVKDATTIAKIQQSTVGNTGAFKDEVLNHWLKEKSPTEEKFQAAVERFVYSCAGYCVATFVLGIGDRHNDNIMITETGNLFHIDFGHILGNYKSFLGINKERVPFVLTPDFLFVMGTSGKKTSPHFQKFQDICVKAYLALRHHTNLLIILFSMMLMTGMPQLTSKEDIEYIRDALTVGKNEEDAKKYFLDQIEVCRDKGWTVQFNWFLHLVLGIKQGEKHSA
PI3Kγ, sequence (P48736 whole entry): as above
T6 sequence (P98170 252-356 limits assumed): as the sequence (P98170 252-356 limits assumed) above
T7 sequence (P42338 whole entry): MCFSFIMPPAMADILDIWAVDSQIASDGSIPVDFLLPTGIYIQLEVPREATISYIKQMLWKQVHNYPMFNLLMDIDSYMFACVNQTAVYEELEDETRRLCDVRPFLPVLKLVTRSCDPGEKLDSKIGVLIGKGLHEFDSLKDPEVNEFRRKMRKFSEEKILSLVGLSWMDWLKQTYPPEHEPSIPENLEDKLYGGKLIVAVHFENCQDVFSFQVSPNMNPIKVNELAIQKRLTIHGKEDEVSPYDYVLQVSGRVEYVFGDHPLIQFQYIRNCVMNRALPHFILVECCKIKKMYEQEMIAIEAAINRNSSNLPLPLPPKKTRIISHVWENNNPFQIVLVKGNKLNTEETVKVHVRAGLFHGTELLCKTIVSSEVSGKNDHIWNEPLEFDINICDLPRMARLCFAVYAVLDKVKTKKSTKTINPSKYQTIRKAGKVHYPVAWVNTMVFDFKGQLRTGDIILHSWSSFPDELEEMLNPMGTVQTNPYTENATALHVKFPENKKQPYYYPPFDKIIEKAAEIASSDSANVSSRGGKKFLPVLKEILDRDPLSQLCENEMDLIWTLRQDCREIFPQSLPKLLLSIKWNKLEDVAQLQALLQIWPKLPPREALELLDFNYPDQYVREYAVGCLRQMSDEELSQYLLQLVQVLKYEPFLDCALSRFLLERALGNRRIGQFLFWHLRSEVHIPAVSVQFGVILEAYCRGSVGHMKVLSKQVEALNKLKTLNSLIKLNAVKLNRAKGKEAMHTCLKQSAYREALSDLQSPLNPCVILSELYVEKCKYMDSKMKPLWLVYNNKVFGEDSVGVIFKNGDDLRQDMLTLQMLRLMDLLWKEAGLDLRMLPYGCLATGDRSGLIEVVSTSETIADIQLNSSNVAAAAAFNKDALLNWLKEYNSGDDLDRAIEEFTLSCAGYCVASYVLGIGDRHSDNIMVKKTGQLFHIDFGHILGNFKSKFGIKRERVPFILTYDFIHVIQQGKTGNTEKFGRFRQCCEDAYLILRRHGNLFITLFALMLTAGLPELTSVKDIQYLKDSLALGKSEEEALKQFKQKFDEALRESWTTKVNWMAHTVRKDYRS
T7 sequence (P27986 whole entry partner): as the sequence (P27986 whole entry partner) above

Consider `CN(Cc1cc2nc(-c3cccc(O)c3)nc(N3CCOCC3)c2s1)C(=O)[C@@H]1CCC(=O)O1` [XXII-6], for which the IC50 is 100 to 1000 nM in assay [1], 10 to 100 nM in assay [2] and 10 to 100 nM in [3].

For the compound `O=C1CC[C@H](C(=O)N2CC=C(c3cc4nc(-c5cccc(O)c5)nc(N5CCOCC5)c4s3)CC2)O1` [XXII-2], the IC50 in assay [1] was in the range of 100 to 1000 nM; in [2] it was 100 to 1000 nM; in assay [3], 10 to 100 nM.

Take `C=CC(=O)Nc1cccc(CNC(=O)[C@@H]2CC[C@@H]3CCCC[C@H](NC(=O)[C@H](C)NC)C(=O)N32)c1` [VII-1, (3S,6S,10aS)-N-(3-acrylamidobenzyl)-6-((S)-2-(methylamino)propanamido)-5-oxodecahydropyrrolo[1,2-a]azocine-3-carboxamide]: the “Ki XIAP” value in [4] came to 161 nM. For the same compound, the inhibition constant Ki in assay [5] and in assay [6] was 100 to 1000 nM throughout. For the same compound, the “mass shift of XIAP” value in [7] was found to be 417 Da. Besides, the “modification of XIAP” value in assay [7] was “complete modification”.

In the case of `CN[C@@H](C)C(=O)N[C@H]1CCCC[C@H]2CC[C@@H](C(=O)NCc3cccc(NC(=O)[C@H]4CCC(=O)O4)c3)N2C1=O` [VII-21], the Ki in assay [5] fell in the range of 100 to 1000 nM. For the same compound, the Ki in assay [6] lay in the range of 1000 to 10000 nM. Moreover, in assay [7], the “mass shift of XIAP” value was 522 Da and the “modification of XIAP” value is listed as “complete modification”.

As to `CC(C)Oc1c(N(C)Cc2cc3nc(-c4cccc(O)c4)nc(N4CCOCC4)c3s2)c(=O)c1=O` [XXII-11], the values for the IC50 in [1], in [2] and in [3] were 100 to 1000 nM, 10 to 100 nM and 10 to 100 nM, respectively.

Consider `CN[C@@H](C)C(=O)N[C@H]1CCCC[C@H]2CC[C@@H](C(=O)NCc3cccc(C(=O)N4CC5CCC4C(=O)O5)c3)N2C1=O` (stereo partly drawn) [VII-43], for which the values for the inhibition constant (Ki) in assay [5] and in assay [6] were 1000 to 10000 nM and greater than 10000 nM, respectively.

`C=CC(=O)Nc1cccc(CNC(=O)[C@@H]2CC[C@@H]3CCCC[C@H](NC(=O)[C@H](C)N(C)C(=O)OC(C)(C)C)C(=O)N32)c1` [VII-2]: the “Ki XIAP” value in [4] is reported as > 10,000 nM. Moreover, the “Ki (XIAP) Inhibition Designation” value in [4] (XIAP) was “E (IC50≥10,000 nM)”. Further, the Ki in assay [5] and in assay [6] was greater than 10000 nM in each case.

In the case of `[2H]C([2H])=C([2H])C(=O)Nc1cccc(CNC(=O)[C@@H]2CC[C@@H]3CCCC[C@H](NC(=O)[C@H](C)NC)C(=O)N32)c1` [VII-16], the Ki in assay [5] and in assay [6] was 100 to 1000 nM in each case.

`CN(Cc1cc2nc(-c3cccc(O)c3)nc(N3CCOCC3)c2s1)C(=O)[C@H]1CCC(=O)O1` [XXII-7]: the figures for the IC50 in assay [1], in assay [2] and in [3] were 100 to 1000 nM, 10 to 100 nM and 100 to 1000 nM, respectively.

`CN[C@@H](C)C(=O)N[C@H]1CCCC[C@H]2CC[C@@H](C(=O)NCc3cccc(COC(=O)CC(C)=O)c3)N2C1=O` [VII-29]: the Ki in assay [5] lay within 1000 to 10000 nM; in [6], 10 to 100 nM.

As for `C=CS(=O)(=O)Nc1cccc(CNC(=O)[C@@H]2CC[C@@H]3CCCC[C@H](NC(=O)[C@H](C)NC)C(=O)N32)c1` [VII-23], the figures for the Ki in assay [5] and in [6] were less than 10 nM and 10 to 100 nM, respectively.

In the case of `Nc1ncc(-c2nc(N3CCOCC3)c3sc(CN4CCN(C(=O)C5CC(=O)CC(=O)C5)CC4)cc3n2)cn1` [XXII-33, 5-(4-((2-(2-aminopyrimidin-5-yl)-4-morpholinothieno[3,2-d]pyrimidin-6-yl)methyl)piperazine-1-carbonyl)cyclohexane-1,3-dione], the IC50 in [8] was in the range of 100 to 1000 nM. Further, the IC50 in [1] is 100 to 1000 nM. Further, in assay [9], the “mass shift of PI3Kγ” value was determined as 492 Da, the “mass shift of PI3Kγ as percent” value is reported as 90% and the “modification of PI3Kγ” value is recorded as “complete modification”.

Take `C=CC(=O)N1CCN(CC#Cc2cc3nc(-c4cccc(O)c4)nc(N4CCOCC4)c3s2)CC1` [XXII-3]: the IC50 in [1] and in assay [2] was 100 to 1000 nM throughout.

For `CC1(C)Cc2nc(N3CCOc4ccc(-c5ccc(C(=O)N6C[C@@H]7C[C@H]6C(=O)O7)cc5)cc43)sc2C(=O)N1` [XXIII-8, (1S,4S)-5-(4-(4-(6,6-dimethyl-4-oxo-4,5,6,7-tetrahydrothiazolo[5,4-c]pyridin-2-yl)-3,4-dihydro-2H-benzo[b][1,4]oxazin-6-yl)benzoyl)-2-oxa-5-azabicyclo[2.2.1]heptan-3-one], the IC50 in [1] fell in the range of 100 to 1000 nM; in assay [2] it was 1000 to 10000 nM; in assay [3] it was 100 to 1000 nM.

On to `CN[C@@H](C)C(=O)N[C@H]1CCCC[C@H]2CC[C@@H](C(=O)N[C@@H]3CCCc4c(NC(=O)C5CCC(=O)O5)cccc43)N2C1=O` (stereo partly drawn) [VII-30], for which the Ki in assay [5] and in assay [6] was 10 to 100 nM throughout.
